# Test results published in patent US8058243B2, “Method for treating a brain cancer with ifenprodil” (HSC Research and Development Limited Partnership, priority 2006, dated 2011).
# Counter-ions that a name gives are not always drawn. Like-named read-outs stand apart in the source and are kept apart here.
# System: murine neural precursor cells (neurosphere cultures)
# Assay: HTS of LOPAC library against secondary neurosphere cultures, MTT proliferation assay at 3 μM, day 7 (z score, P value)
# Format: cell-based, mouse
# [1] = LOPAC primary screen, neurosphere MTT proliferation, 3 μM, day 7
# [2] = yes/no: significantly inhibited neurosphere proliferation in primary screen
# [3] = yes/no: significantly inhibited neurosphere proliferation (P<0.01) in the primary screen
# [4] = LOPAC library screen, 3 μM, MTT, secondary neurosphere cultures, day 7
# [5] = LOPAC screen, neurosphere MTT proliferation, 3 μM, day 7
# [6] = yes/no: significantly inhibited neurosphere proliferation (P<0.01) in primary screen
# [7] = LOPAC library screen at 3 μM, secondary neurosphere cultures, MTT
# [8] = primary LOPAC screen, 3 μM, MTT, neurosphere proliferation
# [9] = yes/no: significantly inhibited neurosphere proliferation in the primary screen
# [10] = yes = significantly inhibited neurosphere proliferation (P<0.01) in the primary screen
# [11] = LOPAC library screen, 3 μM, MTT, neurosphere cultures
compound,measurement,setting,value
O=c1onc2cnc3ccccc3n12 [ODQ],Z Score,,−0.5922
same,Z score,[1],−0.592
same,Activity,[2],no
CCn1cnc2c(Nc3cccc(Cl)c3)nc(N[C@@H]3CCCC[C@@H]3N)nc21.Cl [CGP-74514A hydrochloride],Z Score,,−9.117
same,Z score,[1],−9.117
same,Activity,[3],yes
CN1CCN(CC(=O)N2c3ccccc3C(=O)Nc3cccnc32)CC1 [Pirenzepine dihydrochloride],Z score,"168 h, 3 µM",−0.545
same,Activity,[2],no
CCCN1CCC[C@H](c2cccc(O)c2)C1.Cl [R(+)-3PPP hydrochloride],Z Score,,−2.213
same,Z score,[1],−2.213
same,Activity,[2],no
O=c1[nH]c2cc(C(F)(F)F)ccc2n1-c1cc(C(F)(F)F)ccc1O [NS-1619],Z Score,,−0.4878
same,Z score,[1],−0.488
same,Activity,[2],no
COc1cc2nc(N3CCN(C(=O)C4COc5ccccc5O4)CC3)nc(N)c2cc1OC (stereo not shown) [Doxazosin mesylate],Z Score,[4],−1.861
same,Z score,[5],−1.861
same,Activity,[6],no
CCCN(CCC)CCc1cccc2c1CC(=O)N2 [Ropinirole hydrochloride],Activity,,no
same,Z Score,"168 h, 3 µM",−0.2552
same,Z score,"168 h, 3 µM",−0.255
COc1ccccc1N1CCN(CC(O)COc2cccc3ccccc23)CC1 (stereo not shown) [Naftopidil dihydrochloride],Z Score,[7],−0.1172
same,Z score,[1],−0.117
same,Activity,[2],no
CNCC(O)c1ccc(O)c(O)c1.Cl (stereo not shown) [(B1)-Epinephrine hydrochloride],Z Score,[7],−0.3279
NC(CP(=O)(O)O)C(=O)O (racemic) [(±)-2-Amino-3-phosphonopropionic acid],Z score,[8],1.250
same,Activity,[9],no
NC(CO)(CO)CO.O=C(c1ccccc1)c1ccc2n1CCC2C(=O)O (stereo not shown) [Ketorolac tris salt],Z Score,[7],−0.7256
same,Z score,[1],−0.726
same,Activity,[6],no
N#C/C(=C\c1ccc(O)c(O)c1)C(N)=S [Tyrphostin 47],Z Score,,0.1775
same,Z score,[8],0.178
same,Activity,[9],no
NC(=O)c1ccccc1C(=O)N[C@@H](CCC(=O)O)C(=O)O.[Na].[Na].[Na] [Phthalamoyl-L-glutamic acid trisodium],Z Score,"168 h, 3 µM",0.2509
same,Z score,"168 h, 3 µM",0.251
same,Activity,[2],no
Fc1ccc(C(OCCN2CCN(CCCc3ccccc3)CC2)c2ccc(F)cc2)cc1 [GBR-12909 dihydrochloride],Z Score,[4],−10.9
same,Z score,[1],−10.899
CC/C(=C(\c1ccccc1)c1ccc(OCCN(C)C)cc1)c1ccccc1 [Tamoxifen citrate],Activity,,yes
same,Z Score,[4],−10.64
same,Z score,[1],−10.643
"CC(=O)N[C@@H](Cc1c[nH]c2ccccc12)C(=O)OCc1cc(C(F)(F)F)cc(C(F)(F)F)c1 [L-732,138]",Z Score,,0.5027
same,Z score,[8],0.503
same,Activity,[9],no
O=C1C=CC(=O)C=C1 [p-Benzoquinone],Activity,,no
same,Z Score,[4],−1.571
same,Z score,[8],−1.571
CC(C)(C)NCC(O)COc1cccc2[nH]c(=O)[nH]c12.Cl (racemic) [(±)-CGP-12177A hydrochloride],Z score,[5],−1.611
same,Activity,[6],no
COc1ccccc1N1CCN(CCCCN2C(=O)c3ccccc3C2=O)CC1 [NAN-190 hydrobromide],Z Score,[7],−0.6186
same,Z score,[1],−0.619
same,Activity,[10],no
Foliosidine,Z Score,,−0.0969
same,Z score,[1],−0.097
same,Activity,[6],no
Cc1nc2ccccn2c(=O)c1CCN1CCC(C(=O)c2ccc(F)cc2)CC1 [Pirenperone],Z Score,[11],0.2279
same,Z score,[1],0.228
same,Activity,[3],no
Cl.c1ccc2c(N3CCNCC3)cccc2c1 [1-(1-Naphthyl)piperazine hydrochloride],Z Score,,0.2301
same,Z score,[1],0.230
same,Activity,[2],no
"N=C(N)NC(=O)c1nc(Cl)c(N2CCCCCC2)nc1N [5-(N,N-hexamethylene)amiloride]",Z Score,[11],0.03855
same,Z score,[8],0.039
same,Activity,[9],no
"CN1CCCC1c1cccnc1.O=C(O)C(O)C(O)C(=O)O (single isomer, unassigned; (-)) [(−)-Nicotine hydrogen tartrate salt]",Activity,,no
same,Z Score,,0.04498
same,Z score,,0.045
CC(C)NCC(O)COc1ccc(CCOCC2CC2)cc1 (stereo not shown) [Betaxolol hydrochloride],Z Score,[11],0.9838
same,Z score,[5],0.984
same,Activity,[6],no
COc1cc(C(O)C(=O)O)ccc1O (stereo not shown) [(B1)-Vanillylmandelic acid],Z Score,,−1.811
"CN1C2CCC1CC(NC(=O)c1nn(C)c3ccccc13)C2.O=C(O)/C=C\C(=O)O (stereo not shown) [LY-278,584 maleate]",Z Score,,−1.074
same,Z score,[1],−1.074
same,Activity,[10],no
N=C(N)NCCC[C@H](N)C(=O)O [L-Arginine],Z Score,,0.5592
same,Z score,[8],0.559
same,Activity,[9],no
CN(C)C(=O)Oc1ccc[n+](C)c1 [Pyridostigmine bromide],Z Score,,0.2311
same,Z score,[1],0.231
same,Activity,[2],no
O=c1n(CCCN2CCN(c3cccc(Cl)c3)CC2)nc2ccccn12 [Trazodone hydrochloride],Z Score,"168 h, 3 µM",−2.644
same,Z score,"168 h, 3 µM",−2.644
same,Activity,[3],yes
CC1=NS(=O)(=O)c2cc(Cl)ccc2N1 [Diazoxide],Z Score,[11],0.04511
same,Z score,[5],0.045
same,Activity,[6],no
CC1CN(S(=O)(=O)c2cccc3cnccc23)CCN1.Cl.Cl (stereo not shown) [1-(5-Isoquinolinylsulfonyl)-3-methylpiperazine dihydrochloride],Z Score,"168 h, 3 µM",0.4769
same,Z score,"168 h, 3 µM",0.477
same,Activity,[6],no
"(−)-Bicuculline methbromide, 1(S), 9(R)",Activity,,no
same,Z Score,,−1.842
same,Z score,[1],−1.842
CN(Cc1cnc2nc(N)nc(N)c2n1)c1ccc(C(=O)N[C@@H](CCC(=O)O)C(=O)O)cc1 [Methotrexate],Z Score,[4],−10.2
same,Z score,[1],−10.203
same,Activity,[3],yes
COc1cc2c(cc1OC)[C@@H](c1ccccc1)CN(C)CC2.O=C(O)/C=C\C(=O)O [R(−)-SCH-12679 maleate],Z Score,,1.6092
same,Z score,[8],1.609
same,Activity,[9],no
C=C[C@H]1C[N@@]2CC[C@H]1C[C@H]2[C@H](O)c1ccnc2ccc(OC)cc12 [Quinine sulfate],Z Score,[7],−0.2686
same,Z score,[1],−0.269
same,Activity,[2],no
CC(=O)Oc1ccccc1C(=O)O [Acetylsalicylic acid],Z Score,[7],−0.4812
"O=[N+]([O-])c1cc(O)c(O)c([N+](=O)[O-])c1 [3,5-Dinitrocatechol]",Z Score,,−0.5294
same,Z score,[5],−0.529
same,Activity,[6],no
O=C1CCc2cc(OCCCCc3nnnn3C3CCCCC3)ccc2N1 [Cilostazol],Z Score,[11],0.8219
same,Z score,[5],0.822
same,Activity,[6],no
CP(=O)(O)C1=CCNCC1 [TPMPA],Z Score,,0.8742
same,Z score,[8],0.874
same,Activity,[9],no
"Cl.Clc1ccc(N2CCN(Cc3c[nH]c4ncccc34)CC2)cc1 [L-745,870 hydrochloride]",Z Score,,−11.27
same,Z score,[1],−11.274
NCCc1c[nH]c2ccc(C(N)=O)cc12.O=C(O)/C=C\C(=O)O [5-Carboxamidotryptamine maleate],Z Score,"LOPAC library screen at 3 μM, MTT, secondary neurosphere cultures, screened in singlets",1.667
same,Z score,[5],1.667
same,Activity,[6],no
O-(Carboxymethyl)hydroxylamine hemihydrochloride,Z Score,,−2.058
same,Z score,[8],−2.058
same,Activity,[9],no
CC1CCCC=CC2CC(O)CC2C(O)C=CC(=O)O1 (stereo not shown),Z Score,,−11.27
same,Z score,[1],−11.274
same,Activity,[10],yes
CCCCNc1c(C(=O)OCC)c(C)nc2c1cnn2CC [Tracazolate],Z Score,[7],−0.3151
same,Z score,[8],−0.315
same,Activity,[9],no
NC1CCN(O)C1=O (stereo not shown) [(B1)-HA-966],Z Score,,1.157
O=C(c1ccc2c(c1)OCCO2)N1CCCCC1 [CX 546],Z Score,,−1.05
same,Z score,[5],−1.050
same,Activity,[6],no
COC(=O)C(C)(N)Cc1ccc(O)cc1.Cl (racemic) [alpha-Methyl-DL-tyrosine methyl ester hydrochloride],Z Score,"168 h, 3 µM",0.3703
same,Z score,"168 h, 3 µM",0.370
same,Activity,[3],no
CCn1cc(C(=O)O)c(=O)c2ccc(C)nc21 [Nalidixic acid sodium],Z Score,,−0.3145
same,Z score,[1],−0.314
same,Activity,[10],no
CC1=C(/C=C/C(C)=C/C=C/C(C)=C\C(=O)O)C(C)(C)CCC1 [13-cis-retinoic acid],Z Score,[4],−1.469
same,Z score,[1],−1.469
same,Activity,[3],no
CSc1ccc(C(=O)c2[nH]c(=O)[nH]c2C)cc1 [Enoximone],Z Score,[7],−0.6237
same,Z score,[5],−0.624
same,Activity,[6],no
"O=C(O)[C@H]1CCCN[C@H]1C(=O)O (racemic) [(±)-cis-Piperidine-2,3-dicarboxylic acid]",Z score,"168 h, 3 µM",0.155
same,Activity,[2],no
CCN(CC)C(=O)NC1C=C2c3cccc4[nH]cc(c34)C[C@H]2N(C)C1.O=C(O)/C=C\C(=O)O (stereo partly drawn) [R(+)-Lisuride hydrogen maleate],Z Score,,−1.041
same,Z score,[1],−1.041
O=[N+]([O-])c1cccc2c(Br)n[nH]c12 [3-Bromo-7-nitroindazole],Z Score,"168 h, 3 µM",−1.68
same,Z score,"168 h, 3 µM",−1.680
same,Activity,[9],no
c1ccc2c(CC3=NCCN3)cccc2c1 [Naphazoline hydrochloride],Z Score,[4],−1.724
same,Z score,[1],−1.724
same,Activity,[10],no
NC(Cc1ccc(Cl)cc1)C(=O)O (stereo not shown) [(B1)-p-Chlorophenylalanine],Z Score,,−0.2471
